Paper PMC5656322, “BAK1 is involved in AtRALF1-induced inhibition of root cell expansion” (PLoS Genetics, 2017)
Where no end group is shown, it is not given here.

Key:
[1] = test system: Arabidopsis seedlings, primary root; experiment: Root growth inhibition assay, liquid medium, 24-well plates; type: in vivo, Arabidopsis thaliana; conditions: 10 μM, 2 days
Procedure: (A) and (B) Arabidopsis seedlings (2 days old) were treated with 10 μM AtRALF1 or water (H20) for 2 days. The values are the mean ± SD of at least 25 seedlings. Triple asterisks indicate P < 0.01 (Student’s t test); ns, not significant. (C) Four-day-old seedlings were transferred to media containing different concentrations of AtRALF1, and the primary root length was measured after 8 days of treatment. The data represent the mean value ± SD of 30 seedlings. […] Representative Arabidopsis seedlings after 8 days of treatment with AtRALF1 are shown below. Seedlings were arranged on plates after the treatment for imaging. Scale bars, 1 cm. (D) Two-day-old seedlings were treated with 10 μM AtRALF1 or water for 2 days, and root cell length was measured after 2 days of treatment. Cells from the root endodermis in the differentiation zone were measured. The values are the mean ± SD of approximately 150 cells. Triple asterisks indicate P < 0.01 (Student’s t test); ns, not significant.
Aliquots of 1 ml of medium containing seeds were distributed into 24-well plates. The peptides (10 μM) were added after 2 days, and the root length was measured 2 days after treatment. To maximize root growth, the seeds were germinated in vertical plates. […] The root length was measured 8 days after treatment unless stated otherwise. Control plants were grown under identical conditions in a peptide-free medium. Quantitative data were obtained as previously described. The experiments were repeated at least 3 times using independent biological replicates with similar results. The data from one representative experiment are shown. For cell length measurements, AtRALF1 peptide (10 μM) was added after 2 days of germination, and the cell length was measured after 2 days of treatment. The cell wall was stained with a 1 mg ml^-1 propidium iodide solution (Sigma) in the dark for 15 min and washed twice with water. Cells of the endodermis of the root differentiation zone were imaged and measured using confocal microscopy (Olympus FV1000). Approximately 30 plants from each genetic background and at least 5 cells per root were measured. The wavelengths for excitation and emission were 555 and 655 nm, respectively. Image processing was completed using the Olympus FluoView software.
Arabidopsis seedlings (2-days-old) were treated with 10 μM AtRALF1 or water (H20) for 2 days. The values are the mean ± SD of at least 25 seedlings. Triple asterisks indicate P < 0.01 (Student’s t test); ns, not significant. (PDF) Click here for additional data file.
Supplementary file pgen.1007053.s002.pdf: S2 Fig Loss-of-function bak1 mutants are sensitive to the inhibitory activity of AtRALF23/34 on root growth. Arabidopsis seedlings (2-day-old) were treated with 10 μM RALF1(9–49), RALF1(I6A), AtRALF1, AtRALF23 and AtRALF34 or water (H20) for 2 days. The values are the mean ± SD of at least 20 seedlings. […] (PDF) Click here for additional data file.

BAK1-ECD = biological target: T1, BAK1-ECD (Arabidopsis thaliana, UniProt Q94F62); experiment: Isothermal titration calorimetry (ITC); type: binding
T1 construct: Isothermal titration calorimetry (ITC) of the extracellular domain of BAK1 (BAK1-ECD) vs. AtRALF1; made in house; host or cells: Escherichia coli Rosetta DE3 or BL21
T1 sequence (Q94F62 26-225 limits assumed): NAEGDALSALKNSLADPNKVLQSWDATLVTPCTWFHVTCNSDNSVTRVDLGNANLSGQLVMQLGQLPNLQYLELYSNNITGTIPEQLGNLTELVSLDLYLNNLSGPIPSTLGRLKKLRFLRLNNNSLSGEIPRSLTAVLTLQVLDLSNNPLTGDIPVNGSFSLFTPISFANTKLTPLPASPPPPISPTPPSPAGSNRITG
Text: Fig 6 AtRALF1 interacts physically with BAK1 protein. (A) The active AtRALF1 peptide interacts with the extracellular domain (ECD) of BAK1 (BAK1-ECD) in yeast. The AtRALF1 protein fused to the GAL4 DNA-binding domain (AtRALF1-pGBKT7) was used as bait to test its interaction with the extracellular domain of the proteins fused to the GAL4 activation domain (pGADT7): BAK1 (BAK1-ECD), BAK7 (BAK7-ECD), BRI1 (BRI1-ECD) and FLS2 (FLS2-ECD). (B) Blueprint showing the truncated proteins from the extracellular domain of BAK1 tested in the two-hybrid assay. The extracellular domain of BAK1 comprises leucine zippers (LZ), 5 leucine rich-regions (LRRs) and a proline-rich region (pro-rich). (C) AtRALF1-pGBKT7 was used as bait to test its interaction with truncated proteins fused to the GAL4 activation domain (pGADT7). The transformed yeast cells in (A) and (C) were selected on a synthetic complete medium lacking leucine, tryptophan and histidine to test interactions. (D, E) Co-immunoprecipitation (Co-IP) in vitro between the extracellular domain of BAK1 (HA-BAK1-ECD) and AtRALF1 recombinant purified proteins. HA-BAK1-ECD was detected with an anti-HA antibody. AtRALF1 was detected with an anti-RALF antibody. (F) Recombinant AtRALF1 is co-immunoprecipitated with the BAK1-GFP protein expressed in tobacco. BAK1-GFP was detected with an anti-GFP antibody. […] (G) Isothermal titration calorimetry (ITC) of the extracellular domain of BAK1 (BAK1-ECD) vs. AtRALF1 in ITC buffer (15 mM HEPES, pH 6.8). ITC experiments were simulated using 28 injections of BAK1-ED (0.7 mM, vol 10 μL) on AtRALF1 (0.03 mM vol cell = 1.4 mL) at 25°C. Kd = dissociation constant; N = number of binding sites.
ITC was performed using a VP ITC with a 1.4 ml standard cell and a 293 μl titration syringe. Proteins were dissolved in ITC buffer (15 mM HEPES (4-(2-hydroxyethyl)-1-piperazineethanesulfonic acid, pH 6.8) and the experiments were performed at 25°C. Molar protein concentration for BAK1-ECD and AtRALF1 were calculated using their molecular weight of 25,654.04 and 7,631 Da, respectively (determined by HPLC). The concentrations for the complex titrations were 0.7 mM of protein (BAK1-ECD) in the syringe and 0.03 mM of ligand (AtRALF1) in the cell at time intervals of 300 s (28 injections of volume 10 μl) to ensure that the titration peak returned to the baseline.
ITC data were corrected for the heat of dilution by subtracting the mixing enthalpies for titrant solution injections into protein free ITC buffer. Data were analyzed using the Origin software (version 7.0) as provided by the manufacturer. Independent experiments were repeated three times with similar results.

| Substance | activity of negative control peptides on root growth [1] | interaction with BAK1-ECD by ITC (BAK1-ECD; BAK1-ECD 0.7 mM into 0.03 mM peptide, 15 mM HEPES, pH 6.8, 25°C) | root growth inhibition ([1]; bak1-1 and bak1-3 mutants) | sensitivity to root growth inhibition ([1]; bak1-4 complemented with pBAK1:BAK1) | root growth inhibition ([1]; bri1-301, bsk3-2, sud1, bes1-D, bzr1-D, BRI OX, DWF4 OX lines) | sensitivity to root growth inhibition ([1]; loss-of-function bak1 mutants (bak1-4)) | root growth inhibition ([1]; serk1, serk2, serk4 (bak7), serk5 (bak8) mutants) | number of binding sites (BAK1-ECD; ITC experiment 1 of 3) | number of binding sites (BAK1-ECD; ITC experiment 2 of 3) | N (number of binding sites) (BAK1-ECD; representative experiment, Fig 6G, 15 mM HEPES, pH 6.8, 25°C) |
| --- | --- | --- | --- | --- | --- | --- | --- | --- | --- | --- |
| RALF1(9–49): inactive AtRALF1 peptide which has a deletion of the first 8 amino acids (QSLKRNSVPCSRRGASYYNCQNGAQANPYSRGCSKIARCRS; ends and bridges not checked; cysteine pairing not given here; UniProt Q9SRY3 80-120, looked up, fragment) | inactive | no interaction between the inactive analog and BAK1-ECD |  |  |  |  |  |  |  |  |
| AtRALF1: root-specific RALF isoform in Arabidopsis; recombinant peptide hormone produced in E. coli (ATTKYISYQSLKRNSVPCSRRGASYYNCQNGAQANPYSRGCSKIARCRS; ends and bridges not checked; cysteine pairing not given here) |  |  | exhibited no effect | recovered the sensitivity to the inhibitory effect of AtRALF1 treatment | exhibited root growth inhibition by AtRALF1 | insensitive to the inhibitory activity of AtRALF1 on root growth | inhibited the root growth | 1.27 | 1.5 | 1.27 sites |
